In the test the test system is human Peripheral Blood Mononuclear Cell (PMBC). Nature of the test: PBMC assay: cytokine (IFN-α) stimulation at 24 hours. Type of test: cell-based. As to conditions: lowest concentration stimulating IFN-α production at least 3-fold over background, Luminex, read-out: IFN MEC. Here is the method: Assays were conducted to determine cytokine stimulation at 24 hours from human Peripheral Blood Mononuclear Cell (PMBC) using the compounds of the present invention. The assays were run in duplicate, with 8-point, half-log dilution curves. The compounds of the present invention were diluted from 10 mM DMSO solution. Cell supernatants are assayed directly for IFNα and 1:10 dilution for TNFα. The assays were performed in a similar fashion as described in Bioorg. […] Specifically, cryo-preserved PBMCs were thawed and seeded 96 well plates with 750,000 cells/well in 190 μL/well cell media. The PBMCs were then incubated for 1 hour at 37° C. at 5% CO2. Then, the compounds of the present invention were added in 10 μL cell media at 8 point, half-log dilution titration. The plates were incubated at 37° C. and 5% CO2 for 24 hours and then spinned at 1200 rpm for 10 min, which was followed by collecting supernatant and storing the same at −80° C. Cytokine secretion was assayed with Luminex and Upstate multi-plex kits, using a Luminex analysis instrument. The IFN-α MEC value for a compound was the lowest concentration at which the compound stimulated IFN-α production at least 3-fold over the background as determined using the assay method above.

Turning to `CCC[C@H](C)Oc1nc(N)c2c(n1)N(Cc1cccc(CN3CCCC3)c1)CC(=O)N2` [Example 59], the minimal effective concentration is at most 0.03 µM.

Regarding `CCC[C@@H](C)Oc1nc(N)c2c(n1)N(Cc1ccc(CN3CCCC3)cc1)CC(=O)N2` [Example 60], the minimal effective concentration was over 0.03 µM.

Regarding `CCC[C@H](C)Oc1nc(N)c2c(n1)N(Cc1ccc(CN3CCCC3)cc1)CC(=O)N2` [Example 61], the minimal effective concentration was at most 0.03 µM.

Regarding `CCOc1nc(N)c2c(n1)N(Cc1cccc(CN3CCCC3)c1)CC(=O)N2` [Example 62], the minimal effective concentration is over 0.03 µM.

On to `Nc1nc(O)nc2c1NC(=O)CN2Cc1cccc(CN2CCCC2)c1` [Example 63], for which the minimal effective concentration was over 0.03 µM.

With `CCCCOc1nc(N)c2c(n1)N(Cc1cccc(CN3CCCC3)c1)C(C)C(=O)N2` (centres unmarked) [Example 64], the minimal effective concentration is over 0.03 µM.

For `CCCCOc1nc(N)c2c(n1)N(Cc1ccc(CN3CCCC3)cc1)C(C)C(=O)N2` (centres unmarked) [Example 65], the minimal effective concentration was at most 0.03 µM.

In the case of `CCCCOc1nc(N)c2c(n1)N(Cc1ccnc(N3CCOCC3)c1)CC(=O)N2` [Example 66], the minimal effective concentration was over 0.03 µM.

For the compound `Nc1nc(OCC2CCCO2)nc2c1NC(=O)CN2Cc1ccnc(N2CCOCC2)c1` (centres unmarked) [Example 67], the minimal effective concentration is over 0.03 µM.

Consider `Nc1nc(O[C@@H]2C[C@@H]3C[C@@H]3C2)nc2c1NC(=O)CN2Cc1cccc(CN2CCCC2)c1` [Example 68], for which the minimal effective concentration was at most 0.03 µM.

For `Nc1nc(OC2CCCC2)nc2c1NC(=O)CN2Cc1ccnc(N2CCOCC2)c1` [Example 69], the minimal effective concentration was over 0.03 µM.

For the compound `CCCCOc1nc(N)c2c(n1)N(Cc1ccc3c(c1)CN(CC1CC1)CC3)CC(=O)N2` [Example 70], the minimal effective concentration is at most 0.03 µM.

As for `CCCCOc1nc(N)c2c(n1)N(Cc1ccc3c(c1)CN(C(C)C)CC3)CC(=O)N2` [Example 71], the minimal effective concentration was at most 0.03 µM.

Regarding `CCCCOc1nc(N)c2c(n1)N(Cc1ccc3c(c1)CN(CC1CCC1)CC3)CC(=O)N2` [Example 72], the minimal effective concentration is at most 0.03 µM.

With `CCCCOc1nc(N)c2c(n1)N(C(C)c1ccc(CN3CCCC3)cc1)CC(=O)N2` (centres unmarked) [Example 74], the minimal effective concentration is over 0.03 µM.

For `CCCCOc1nc(N)c2c(n1)N(Cc1cccc(CN3CCC(C(=O)O)CC3)c1)CC(=O)N2` [Example 75], the minimal effective concentration was over 0.03 µM.

As for `CCCCNc1nc(N)c2c(n1)N(Cc1cccc(CN3CCCC3)c1)CCC(=O)N2` [Example 76], the minimal effective concentration was over 0.03 µM.

As for `Nc1nc(NCC2CCCO2)nc2c1NC(=O)CN2Cc1cccc(CN2CCCC2)c1` (centres unmarked) [Example 77], the minimal effective concentration was over 0.03 µM.

Take `CCCCNc1nc(N)c2c(n1)N(Cc1ccnc(N3CCOCC3)c1)CC(=O)N2` [Example 78]: the minimal effective concentration was over 0.03 µM.

`CCCCOc1nc(N)c2c(n1)N(Cc1cccc(CN3CCN(C)CC3)c1)CC(=O)N2` [Example 79]: the minimal effective concentration was at most 0.03 µM.

With `CCCCOc1nc(N)c2c(n1)N(Cc1cccc(CNc3ccccn3)c1)CC(=O)N2` [Example 80], the minimal effective concentration was over 0.03 µM.

For `CCCN(C)C(=O)c1nc(N)c2c(n1)N(Cc1cccc(CN3CCCC3)c1)CC(=O)N2` [Example 81], the minimal effective concentration was over 0.03 µM.

Regarding `CCCCOc1nc(N)c2c(n1)N(Cc1cccc(CN3CCCC3)c1)C(O)C(=O)N2` (centres unmarked) [Example 82], the minimal effective concentration was at most 0.03 µM.

`CCCCOc1nc(N)c2[nH]c(=O)c(=O)n(Cc3cccc(CN4CCCC4)c3)c2n1` [Example 83]: the minimal effective concentration is at most 0.03 µM.

Take `CCCN(C)C(=O)c1nc(N)c2c(n1)N(Cc1ccc(CN3CCCC3)cc1)CC(=O)N2` [Example 85]: the minimal effective concentration is over 0.03 µM.

With `COC[C@H](C)Oc1nc(N)c2c(n1)N(Cc1cccc(CN3CCCC3)c1)CC(=O)N2` [Example 87], the minimal effective concentration is at most 0.03 µM.

Regarding `COC[C@@H](C)Oc1nc(N)c2c(n1)N(Cc1cccc(CN3CCCC3)c1)CC(=O)N2` [Example 88], the minimal effective concentration is at most 0.03 µM.

As for `CCCCOc1nc(N)c2[nH]c(=O)c(=O)n(Cc3ccccc3CN3CCCC3)c2n1` [Example 89], the minimal effective concentration is at most 0.03 µM.

Take `CCCCNc1nc(N)c2[nH]c(=O)c(=O)n(Cc3cccc(CN4CCCC4)c3)c2n1` [Example 90]: the minimal effective concentration was over 0.03 µM.

Take `COCCOc1nc(N)c2[nH]c(=O)c(=O)n(Cc3cccc(CN4CCCC4)c3)c2n1` [Example 91]: the minimal effective concentration was over 0.03 µM.

As to `CCCN(C)C(=O)c1nc(N)c2[nH]c(=O)c(=O)n(Cc3cccc(CN4CCCC4)c3)c2n1` [Example 92], the minimal effective concentration is over 0.03 µM.

With `CCCN(C)C(=O)c1nc(N)c2[nH]c(=O)c(=O)n(Cc3ccc(CN4CCCC4)cc3)c2n1` [Example 93], the minimal effective concentration was at most 0.03 µM.

Take `COCCOc1nc(N)c2c(n1)N(Cc1ccc(-c3cccc(CN4CCCC4)c3)cc1)CC(=O)N2` [Example 94]: the minimal effective concentration is at most 0.03 µM.

`COCCOc1nc(N)c2[nH]c(=O)c(=O)n(Cc3ccc(-c4cccc(CN5CCCC5)c4)cc3)c2n1` [Example 95]: the minimal effective concentration is at most 0.03 µM.

Take `CCCCOc1nc(N)c2c(n1)N(Cc1ccc(-c3cccc(CN4CCCC4)c3)cc1)CC(=O)N2` [Example 96]: the minimal effective concentration is at most 0.03 µM.

As for `CCCCOc1nc(N)c2[nH]c(=O)c(=O)n(Cc3ccc(-c4cccc(CN5CCCC5)c4)cc3)c2n1` [Example 97], the minimal effective concentration was at most 0.03 µM.

In the case of `COCCOc1nc(N)c2c(n1)N(Cc1ccc(-c3ccc(CN4CCCC4)cc3)cc1)CC(=O)N2` [Example 98], the minimal effective concentration is at most 0.03 µM.

For `COCCOc1nc(N)c2[nH]c(=O)c(=O)n(Cc3ccc(-c4ccc(CN5CCCC5)cc4)cc3)c2n1` [Example 99], the minimal effective concentration is at most 0.03 µM.

For `CCCCOc1nc(N)c2c(n1)N(Cc1ccc(-c3ccc(CN4CCCC4)cc3)cc1)CC(=O)N2` [Example 100], the minimal effective concentration was at most 0.03 µM.

As for `CCCCOc1nc(N)c2[nH]c(=O)c(=O)n(Cc3ccc(-c4ccc(CN5CCCC5)cc4)cc3)c2n1` [Example 101], the minimal effective concentration was over 0.03 µM.

As to `CCCCOc1nc(N)c2c(n1)N(Cc1cccc(CN3C(C)CCC3C)c1)CC(=O)N2` (centres unmarked) [Example 102], the minimal effective concentration was at most 0.03 µM.

In the case of `CCCCOc1nc(N)c2c(n1)N(Cc1ccc3c(c1)CCNC3)CC(=O)N2` [Example 103], the minimal effective concentration is at most 0.03 µM.

Turning to `CCCCOc1nc(N)c2c(n1)N(Cc1ccc3c(c1)CCN(CC)C3)CC(=O)N2` [Example 104], the minimal effective concentration was at most 0.03 µM.

`CCCCOc1nc(N)c2c(n1)N(Cc1ccc3c(c1)CCN(C(C)C)C3)CC(=O)N2` [Example 105]: the minimal effective concentration is at most 0.03 µM.

`CCCCOc1nc(N)c2c(n1)N(Cc1ccc3c(c1)CCN(CC1CC1)C3)CC(=O)N2` [Example 106]: the minimal effective concentration is over 0.03 µM.

With `CCCCOc1nc(N)c2c(n1)N(CCC1CCN(Cc3ccccc3)CC1)CC(=O)N2` [Example 108], the minimal effective concentration was over 0.03 µM.

Consider `CCCC(C)Oc1nc(N)c2c(n1)N(Cc1ccc(C)nc1)CC(=O)N2` (centres unmarked) [Example 109], for which the minimal effective concentration is over 0.03 µM.

Consider `CCCCOc1nc(N)c2c(n1)N(CCCN(Cc1ccccc1)C(=O)CN1CCN(C)CC1)CC(=O)N2` [Example 110], for which the minimal effective concentration is at most 0.03 µM.

Turning to `CCCCOc1nc(N)c2c(n1)N(Cc1ccc(C)nc1)CC(=O)N2` [Example 111], the minimal effective concentration was over 0.03 µM.

With `CCCCOc1nc(N)c2[nH]c(=O)c(=O)n(Cc3ccc(C)nc3)c2n1` [Example 112], the minimal effective concentration was over 0.03 µM.

For `CCCCOc1nc(N)c2c(n1)N(CCC1CCN(CC3CC3)CC1)CC(=O)N2` [Example 113], the minimal effective concentration was at most 0.03 µM.

As to `Cc1ccc(CN2CC(=O)Nc3c(N)nc(OCC4CCCO4)nc32)cn1` (centres unmarked) [Example 114], the minimal effective concentration was over 0.03 µM.

As to `Cc1ccc(CN2CC(=O)Nc3c(N)nc(OCC4CCOC4)nc32)cn1` (centres unmarked) [Example 115], the minimal effective concentration was over 0.03 µM.

Regarding `CCC[C@H](C)Oc1nc(N)c2c(n1)N(Cc1ccc(C)nc1)CC(=O)N2` [Example 116], the minimal effective concentration was over 0.03 µM.

Turning to `CCCCOc1nc(N)c2c(n1)N(Cc1ccc(C(F)(F)F)nc1)CC(=O)N2` [Example 117], the minimal effective concentration is over 0.03 µM.

Regarding `Nc1nc(OCC2CCOCC2)nc2c1NC(=O)CN2Cc1ccc(C(F)(F)F)nc1` [Example 118], the minimal effective concentration is over 0.03 µM.
